The results in this text go back to patent publication US20180098993A1, “USE OF (2R, 6R)-HYDROXYNORKETAMINE, (S)-DEHYDRON[…] OTHER STER[…] AND HYDROXYLATED METABOLITES OF (R,S)- KETAMINE IN THE TREATMENT OF DEPRESSION AND NEUROPATHIC PAIN” (THE UNITED STATES OF AMERICA, AS REPRESENTED BY THE …, priority 2011, published 2018).

Structures can show the parent of a compound that is named as a salt. Where two headings read alike, the source gives them in different places.

One series has as its target T1, α7 nAChR (Rattus norvegicus, UniProt Q05941).
T1 construct: expressed in transfected cells; host or cells: KXα7R1
Put plainly: whole-cell patch clamp, currents evoked by acetylcholine in KXα7R1. It is filed as cell-based. The note with it: for current evoked by 280 micromolar acetylcholine, normalized to current elicited by ACh alone (Mean): -80 mV, n=4; for inhibition at 0.1 µM: read-out: inhibition (α7) at 100 nM. From the text:
(§1) Without wishing to be bound to any particular theory applicants believe certain compounds of Formula I exert activity via serine racemase inhibition. Since nicotinic acetylcholine receptors (nAChR) have been validated as a target in analgesia applicants investigated the activity of DHNK at two nAChR subtypes, α7 and α3β4 nAChR. Patch-clamp technique in a whole-cell configuration was used to examine functional activity of ketamine, norketamine, DHNK and HNK metabolites at the α7 and α3β4 neuronal […] receptors (nAChRs). The activity of these compounds at the α3β4 nAChR was investigated using nicotine-stimulated 86Rb+ efflux assays in HEK293 cells expressing the α3β4 nAChR.
Since nicotinic acetylcholine receptors (nAChR) have been validated as a target in analgesia we have investigated the activity of DHNK ([…]) at two nAChR subtypes, α7 and α3β4 nAChR. The patch clamp in a whole cell configuration was used to examine functional activity of ketamine, norketamine, and the DHNK and HNK metabolites on currents evoked by 280 micromolar acetylcholine in the KXα7R1. The data was obtained at −80 mV and normalized to the amplitude of current elicited by ACh alone, n=4.

Another series addresses T2, α3β4 nAChR (Rattus norvegicus, UniProt P04757+P12392).
T2 construct: expressed in transfected cells; host or cells: HEK293
The series can be described thus: nicotine-stimulated 86Rb+ efflux in HEK293 cells expressing α3β4 nAChR; whole-cell patch clamp. It is filed as cell-based.
Text: as §1

Series [1] can be described thus: plasma half-life and oral bioavailability (statement). The note with it: in vivo.
Series [2] has as its target T3, serine racemase (Homo sapiens, UniProt Q9GZT4).
T3 sequence (Q9GZT4 1-340): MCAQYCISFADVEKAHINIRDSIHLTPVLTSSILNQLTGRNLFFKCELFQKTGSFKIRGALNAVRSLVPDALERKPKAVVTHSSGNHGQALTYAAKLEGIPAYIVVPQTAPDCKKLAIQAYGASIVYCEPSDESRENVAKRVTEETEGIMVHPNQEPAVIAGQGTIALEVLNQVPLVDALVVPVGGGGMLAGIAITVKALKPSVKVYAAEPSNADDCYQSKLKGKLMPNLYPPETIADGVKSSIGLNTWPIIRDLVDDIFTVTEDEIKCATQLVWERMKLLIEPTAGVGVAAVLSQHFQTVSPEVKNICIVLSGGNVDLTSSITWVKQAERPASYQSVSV
Put plainly: intracellular D-serine concentration in 1321N1 astrocytoma cells. It is filed as cell-based. Further details: host or cells: 1321N1 astrocytoma. The note with it: read-out: IC50, reduction of intracellular D-serine. From the text:
Applicants have determined that ketamine inhibits NMDA (N-methyl-D-aspartic acid) receptors by inhibiting serine racemase and thereby limiting the concentration of D-serine available to interact with the NMDA receptor. An indirect inhibition of SR activity by ketamine or ketamine metabolites through the inhibition of nAChR activity was hypothesized. PC12 cells were chosen to test the hypothesis since the cell line expresses active SR and α7 and α3β4 nAChRs.
The cell lines selected for this study were PC-12 pheochromocytoma derived from rat adrenal medulla, human-derived 1321N1 astrocytoma, rat-derived C6 glioblastoma, and human-derived HepG2 hepatocellular carcinoma. All of the cell lines were obtained from ATCC (Manassas, Va., USA). […]
(§2) Instrumentation: The CE separations were performed with a P/ACE MDQ system equipped with a laser-induced fluorescence detector (Beckman Instruments, Fullerton, Calif., USA). The laser-induced fluorescence detection was carried out with excitation at 488 nm and emission at 520 nm. […] Quantification was accomplished using area ratios calculated for FITC-D-Ser with FITCD-Arg as the internal standard, where the concentration of the internal standard was set at 5 μM. […]

In another series the test system is NMDA receptor. The series can be described thus: NMDA receptor inhibition. It is filed as binding. The note with it: for Ki: read-out: NMDAR Ki. The protocol: Certain compounds of Formula I discussed in this disclosure were tested in the above serine racemase assay, for NMDA receptor inhibition and inhibition of the nicotinic acetylcholine receptor subtype α7. The assay for nicotinic acetylcholorine receptor subtype α7 is given below in Example 6.

The target of series [3] is T3, serine racemase. Put plainly: serine racemase inhibition assay (intracellular D-serine by CE-LIF). It is filed as cell-based. The note with it: 36 h incubation, cell line not stated.
Text: The cell lines selected for this study were PC-12 pheochromocytoma derived from rat adrenal medulla, human-derived 1321N1 astrocytoma, rat-derived C6 glioblastoma, and human-derived HepG2 hepatocellular carcinoma. All of the cell lines were obtained from ATCC (Manassas, Va., USA). The PC12 cells were maintained in RPMI7 1640 with L-Gln supplemented with 10% horse serum (heat inactivated), 5% FBS, 1% sodium pyruvate solution, 1% HEPES buffer and 1% penicillin/streptomycin solution. The 1321N1 and C6 cells were maintained in DMEM with L-Gln supplemented with 10% FBS and 1% penicillin/streptomycin solution. The HepG2 cells were maintained in E-MEM supplemented with 1% L-Gln, 10% FBS, 1% sodium pyruvate solution and 1% penicillin/streptomycin solution.
as §2

T1 sequence (Q05941 23-502): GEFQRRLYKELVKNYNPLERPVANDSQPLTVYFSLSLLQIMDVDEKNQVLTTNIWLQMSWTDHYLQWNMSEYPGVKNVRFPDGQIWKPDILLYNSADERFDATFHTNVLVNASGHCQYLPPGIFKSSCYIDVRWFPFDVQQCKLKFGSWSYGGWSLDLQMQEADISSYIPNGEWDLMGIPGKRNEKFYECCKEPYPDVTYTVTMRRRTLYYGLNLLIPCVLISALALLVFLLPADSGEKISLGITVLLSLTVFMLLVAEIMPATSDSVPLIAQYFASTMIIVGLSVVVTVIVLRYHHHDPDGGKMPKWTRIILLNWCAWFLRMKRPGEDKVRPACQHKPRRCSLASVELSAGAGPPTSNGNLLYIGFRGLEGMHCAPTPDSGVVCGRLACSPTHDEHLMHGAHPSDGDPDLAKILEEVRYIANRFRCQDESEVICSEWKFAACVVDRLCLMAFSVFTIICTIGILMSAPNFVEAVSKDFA
T2 sequence (P04757 26-499): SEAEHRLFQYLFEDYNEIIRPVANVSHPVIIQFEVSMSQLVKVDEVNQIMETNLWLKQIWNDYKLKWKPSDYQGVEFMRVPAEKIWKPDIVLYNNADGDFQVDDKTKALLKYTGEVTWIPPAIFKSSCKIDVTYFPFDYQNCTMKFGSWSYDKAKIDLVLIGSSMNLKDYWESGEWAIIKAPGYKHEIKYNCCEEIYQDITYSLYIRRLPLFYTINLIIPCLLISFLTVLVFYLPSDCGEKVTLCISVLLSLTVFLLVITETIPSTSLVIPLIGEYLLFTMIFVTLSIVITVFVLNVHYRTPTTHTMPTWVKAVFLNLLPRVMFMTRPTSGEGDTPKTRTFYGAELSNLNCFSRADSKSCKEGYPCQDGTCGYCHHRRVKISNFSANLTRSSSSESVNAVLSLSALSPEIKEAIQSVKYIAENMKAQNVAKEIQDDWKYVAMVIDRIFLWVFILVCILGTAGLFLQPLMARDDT
T2 sequence (P12392 21-495): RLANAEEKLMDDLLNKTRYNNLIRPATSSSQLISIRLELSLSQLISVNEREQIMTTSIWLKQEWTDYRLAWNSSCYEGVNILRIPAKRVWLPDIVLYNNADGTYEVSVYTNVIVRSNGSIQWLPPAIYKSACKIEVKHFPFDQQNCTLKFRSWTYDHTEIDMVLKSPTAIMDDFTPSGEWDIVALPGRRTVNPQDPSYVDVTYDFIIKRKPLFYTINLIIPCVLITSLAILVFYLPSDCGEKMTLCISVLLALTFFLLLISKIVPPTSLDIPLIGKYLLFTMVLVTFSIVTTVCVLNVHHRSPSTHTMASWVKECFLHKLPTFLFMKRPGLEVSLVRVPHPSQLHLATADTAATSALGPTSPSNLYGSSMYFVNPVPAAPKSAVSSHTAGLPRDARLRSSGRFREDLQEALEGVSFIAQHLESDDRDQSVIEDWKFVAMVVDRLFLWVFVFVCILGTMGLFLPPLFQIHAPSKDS

With `NC1(c2ccccc2Cl)CCC=CC1=O` (racemic) [(R,S)-DHNK, (R,S)-dehydronorketamine], the “activity at α7 nAChR” value on α7 nAChR is “potent inhibitor”. Besides, the “current evoked by 280 micromolar acetylcholine, normalized to current elicited by ACh alone (Mean)” value at α7 nAChR (100 nM) came out at 0.407; on α7 nAChR (1000 nM), 0.205. Further, the IC50 at α7 nAChR (read-out: IC50 (α7)) was around 50 nM; at α7 nAChR (read-out: IC50 at α7 nAChR) it was 50 nM; on serine racemase [2] it was 16.4 nM. At α3β4 nAChR, the “activity at α3β4 nAChR” value was “inactive”. In addition, the “plasma half-life” value in series [1] was “long”. Moreover, the “oral bioavailability” value in series [1] was “orally bioavailable”.

In the case of `NC1(c2ccccc2Cl)CCCCC1=O` (racemic) [(R,S)-norKet, norketamine], on α7 nAChR, the “activity at α7 nAChR” value is “inactive” and the inhibition at 0.1 µM worked out at 46%. Also, the “current evoked by 280 micromolar acetylcholine, normalized to current elicited by ACh alone (Mean)” value at α7 nAChR (100 nM) is 0.548. In addition, at α7 nAChR (1000 nM), the “current evoked by 280 micromolar acetylcholine, normalized to current elicited by ACh alone (Mean)” value was determined as 0.287.

As to `N[C@@]1(c2ccccc2Cl)CCC[C@@H](O)C1=O` [(2R,6R; 2S,6S)-hydroxynorketamine], in the series with NMDA receptor, the “activity at the NMDA receptor” value was “not active”.

Take `N[C@@]1(c2ccccc2Cl)CCC[C@@H](O)C1=O` [(2S,6S)-HNK, (2S,6S)-6-Hydroxynorketamine Hydrochloride]: the Ki at NMDA receptor worked out at 21.2 µM. On α7 nAChR (100 nM), the “current evoked by 280 micromolar acetylcholine, normalized to current elicited by ACh alone (Mean)” value stood at 0.461. The “current evoked by 280 micromolar acetylcholine, normalized to current elicited by ACh alone (Mean)” value on α7 nAChR (1000 nM) was determined as 0.361. Further, at α7 nAChR, the inhibition at 0.1 µM is 54%. Further, in series [1], the “plasma half-life” value is reported as “long” and the “oral bioavailability” value is listed as “orally bioavailable”.

On to `N[C@]1(c2ccccc2Cl)CCC=CC1=O` [(S)-DHNK, (S)-1-amino-2′-chloro-5,6-dihydro-[1,1′-biphenyl]-2(1H)-one], for which the Ki at NMDA receptor is 39 µM.

With `N[C@@]1(c2ccccc2Cl)CCC=CC1=O` [(R)-DHNK, (R)-5,6-dehydroxynorketamine hydrochloride], at NMDA receptor, the Ki is 74.5 µM.

Regarding `N[C@]1(c2ccccc2Cl)CCCCC1=O` [(S)-norKet, (S)-norketamine, reference compound], the Ki at NMDA receptor is 2.25 ± 0.22 µM. Moreover, on serine racemase [3], the concentration for half-maximal inhibition (IC50) is 50 to 120 nM.

Regarding `N[C@]1(c2ccccc2Cl)CCC[C@H](O)C1=O` (stereo in doubt) [(2R,6R)-HNK, (2R,6R)-6-Hydroxynorketamine Hydrochloride], at NMDA receptor, the Ki was above 100 µM. Besides, the “current evoked by 280 micromolar acetylcholine, normalized to current elicited by ACh alone (Mean)” value amounted to 0.489 on α7 nAChR (100 nM) and 0.354 at α7 nAChR (1000 nM). In addition, at α7 nAChR, the inhibition at 0.1 µM worked out at 51%.

Regarding `N[C@@]1(c2ccccc2Cl)CCCCC1=O` [(R)-norKet, (R)-norketamine, reference compound], the Ki on NMDA receptor was 26.5 µM. On serine racemase [3], this compound had an IC50 of 40 to 80 nM.

For the compound `CNC1(c2ccccc2Cl)CCCCC1=O` (centres unmarked) [ketamine], on α7 nAChR, the “activity at α7 nAChR” value is “inactive”. On α3β4 nAChR, this compound showed an IC50 of 10 µM.
